Experimental findings from patent US20260232750A1, “COMPOSITION AND METHOD FOR INHIBITING ADVANCED GLYCATION END PRODUCTS” (ACCESS BUSINESS GROUP INTERNATIONAL LLC, priority 2022, published 2026) are described below.

Common to all, as to type: biochemical
Experiment [1] addresses T1, COX-2 (Homo sapiens, UniProt P35354).
T1 construct: purchased Beyotime S0168
T1 sequence (P35354 18-604): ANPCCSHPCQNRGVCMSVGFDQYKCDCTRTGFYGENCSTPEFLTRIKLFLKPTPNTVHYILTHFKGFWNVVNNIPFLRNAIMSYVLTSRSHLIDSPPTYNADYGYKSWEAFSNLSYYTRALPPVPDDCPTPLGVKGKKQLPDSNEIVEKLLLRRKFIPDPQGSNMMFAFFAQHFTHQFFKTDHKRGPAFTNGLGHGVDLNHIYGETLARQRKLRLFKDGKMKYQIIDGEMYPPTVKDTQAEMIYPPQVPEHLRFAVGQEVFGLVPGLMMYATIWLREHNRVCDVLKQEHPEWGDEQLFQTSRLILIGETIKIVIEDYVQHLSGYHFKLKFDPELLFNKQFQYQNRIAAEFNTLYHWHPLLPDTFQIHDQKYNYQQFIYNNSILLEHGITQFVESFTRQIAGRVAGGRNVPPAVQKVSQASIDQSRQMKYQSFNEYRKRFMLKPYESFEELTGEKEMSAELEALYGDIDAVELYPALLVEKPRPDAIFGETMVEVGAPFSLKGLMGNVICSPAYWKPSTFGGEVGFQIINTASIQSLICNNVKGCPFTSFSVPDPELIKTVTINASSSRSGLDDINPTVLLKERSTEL
Kind of experiment: Anti-COX-2 assay (COX-2 Inhibitor Screening Kit).
Method: Anti-inflammatory activity was assessed by measuring COX-2 enzymatic inhibition on the basis of a described method by using the COX-2 Inhibitor Screening Kit (Beyotime, No. S0168). Celecoxib, a COX-2 inhibitor, was used as a positive control.

Experiment [2] is described as follows: Online UPLC-PDA-MS-ABTS·+ scavenging (post-column derivatisation). The note with it: online profiling of DOF extract. Here is the method: Online identification of antioxidant components of DOF extract was performed using a UPLC system (Milford, MA, USA) consisting of a Waters photodiode array detector and a Waters postcolumn derivatisation system supplying fresh ABTS solution (UPLC-PDA-QDa-ABTS). […] The detection wavelengths were set at 280 and 734 nm, and the injection volume of the sample was 10 μl.
To detect radical scavengers, the UPLC system was coupled with a Waters pump, which supplied freshly prepared ABTS·+ solution into a reaction coil (15 m, 0.25 mm ID) with a flow rate of 0.2 ml/min at 37° C. Negative peaks were recorded based on a decrease of absorbance at 729 nm after the reaction of individual compounds with the ABTS·+ radical. For preliminary identification of compounds, a Waters Acquity QDa mass detector in negative ionisation mode was connected in series to PDA with the following parameters: electrospray ion source; cone voltage, 15 V; atomiser, N2; and scanning range, 100-800 m/z.

A short description of experiment [3]: FRAP total antioxidant capacity assay. Here is the method:
Fast colourimetric methods were slightly modified for the in vitro assessment of DPPH· scavenging, ABTS·+ decolourisation capacity, and total antioxidant capacity of FRAP. The stock solutions of derivatisation reagents were diluted as follows before measurement: DPPH was diluted with absolute ethanol until the absorbance was 0.8±0.05 at λ=517 nm. ABTS working solution was prepared with phosphate buffer (0.2 M, pH 7.4) to display absorbance of 0.8±0.05 at λ=729 nm, based on a previous study. The FRAP solution was prepared according to the instructions of the FRAP kit. Absorbances were measured using an automatic microplate reader (Molecular Group Ltd., USA), and all analyses were performed using 96-well plates. All measurements were performed in triplicate, and Trolox was used as a positive control.
For total antioxidant capacity, 180 μl of FRAP solution was mixed with 5 μl of sample solution, and the absorbance was measured after 5 min at […] with PBS as the negative control. FeSO4 solutions (0.15, 0.3, 0.6, 0.9, 1.2, and 1.5 mM) were used for the calibration curve. The FRAP value represents the corresponding concentration of FeSO4 solutions (mM FeSO4). The regression equation from the standard curve was used to calculate the equivalent concentration 1 (EC1) of each sample. EC1 is defined as the concentration of the test sample with an absorbance equivalent to that of 1.0 mmol/L of FeSO4 solution, determined by its calibration curve.

A short description of experiment [4]: DPPH· scavenging assay. (The DPPH test is a chemical assay of radical scavenging.)

Entries after “also recorded” stand apart in the source; their conditions may differ. Bounds are passed on as bounds.

In the case of `O=c1cc(-c2ccc(O)cc2)oc2c([C@@H]3OC[C@@H](O)[C@H](O)[C@H]3O)c(O)c([C@@H]3O[C@H](CO)[C@@H](O)[C@H](O)[C@H]3O)c(O)c12` [Compound 19, Vicenin-3], the “COX-2 inhibition (in words)” value in experiment [1] was “no inhibitory effects”.

On to `O=c1cc(-c2ccc(O)cc2)oc2c([C@@H]3OC[C@H](O)[C@H](O)[C@H]3O)c(O)c([C@@H]3O[C@H](CO)[C@@H](O)[C@H](O)[C@H]3O)c(O)c12` [Compound 17, Schaftoside], for which the “COX-2 inhibition (in words)” value in experiment [1] is reported as “no inhibitory effects”.

`O=c1cc(-c2ccc(O)cc2)oc2c([C@@H]3O[C@H](CO)[C@@H](O)[C@H](O)[C@H]3O)c(O)c([C@@H]3O[C@H](CO)[C@@H](O)[C@H](O)[C@H]3O)c(O)c12` [Compound 10, Vicenin-2]: the “ABTS radical scavenging by size of negative peaks at 734 nm (in words)” value in experiment [2] is listed as “strongest ABTS radical scavengers”. Also, in experiment [1], the “COX-2 inhibition (in words)” value was “no inhibitory effects”.

As for `O=c1cc(-c2ccc(O)c(O)c2)oc2c(C3OCC(O)C(O)C3O)c(O)c(C3OC(CO)C(O)C(O)C3O)c(O)c12` [Compound 15, Luteolin-6-C-β-D-glucoside-8-C-β-D-xyloside], the “antioxidant ability by FRAP (in words)” value in experiment [3] was “great antioxidant potency”. Also, in experiment [3] (Table 11, mean ± SD, n = 3), the “FRAP EC1 (mM)” value was 1,100.3 µM. Further, in experiment [1], the “COX-2 inhibition (in words)” value is given as “great COX-2 inhibition; also recorded: outstanding COX-2 inhibitory effects”. In experiment [4], the “antioxidant ability by DPPH (in words)” value is on record as “great antioxidant potency”.

Regarding `O=c1cc(-c2ccc(O)cc2)oc2c([C@H]3OC[C@H](O)[C@H](O)[C@H]3O)c(O)c([C@@H]3O[C@H](CO)[C@@H](O)[C@H](O)[C@H]3O)c(O)c12` [Compound 21, Neoschaftoside], the “antioxidant ability by FRAP (in words)” value in experiment [3] is on record as “great antioxidant potency”. The “antioxidant ability by DPPH (in words)” value in experiment [4] is recorded as “great antioxidant potency”.

For orientation: IC50 means the midpoint of a concentration-inhibition curve. Take `COc1cc(-c2oc3cc(O)cc(O)c3c(=O)c2O[C@@H]2O[C@H](CO)[C@@H](O)[C@H](O)[C@H]2O)ccc1O` [Compound 32, Isorhamnetin-3-O-glucoside]: the “EC1 of FRAP” value in experiment [3] is reported as 2,757.3±103.8 μM. Also, the IC50 in experiment [1] was 0.535 ± 0.15 mM; in experiment [4], 2.37 mM.

On to `O=c1cc(-c2ccc(O)c(O)c2)oc2cc(O)c(C3OC(CO)C(O)C(O)C3O)c(O)c12` [Compound 18, Luteolin-6-C-β-D-glucoside], for which the “antioxidant ability by FRAP (in words)” value in experiment [3] is “great antioxidant potency”. For the same compound, the FRAP EC1 in experiment [3] (Table 11, mean ± SD, n = 3) was determined as 507 µM. Further, the “COX-2 inhibition (in words)” value in experiment [1] is reported as “great COX-2 inhibition; also recorded: outstanding COX-2 inhibitory effects”. In experiment [4], the “antioxidant ability by DPPH (in words)” value was “great antioxidant potency”.

Consider `O=c1c(O[C@@H]2O[C@H](CO)[C@@H](O)[C@H](O)[C@H]2O)c(-c2ccc(O)cc2)oc2cc(O)cc(O)c12` [Compound 31, Astragalin], for which the “COX-2 inhibition (in words)” value in experiment [1] is listed as “no inhibitory effects”.

As to `O=c1cc(-c2ccc(O)cc2)oc2c([C@@H]3OC[C@@H](O)[C@H](O)[C@H]3O)c(O)c([C@@H]3OC[C@H](O)[C@H](O)[C@H]3O)c(O)c12` [Compound 26, Apigenin-6-C-α-L-arabinoside-8-C-β-D-xyloside], the “FRAP EC1 (mM)” value in experiment [3] (Table 11, mean ± SD, n = 3) was >5,000 µM. The “COX-2 inhibition (in words)” value in experiment [1] is “no inhibitory effects”.

Regarding `O=C(/C=C/c1ccc(O)c(O)c1)O[C@@H]1O[C@H](CO)[C@@H](O)[C@H](O)[C@H]1O` [Compound 5, 1-O-caffeoyl-β-D-glucoside], the “ABTS radical scavenging by size of negative peaks at 734 nm (in words)” value in experiment [2] is on record as “strongest ABTS radical scavengers”.

As to `CC1OC(OCC2OC(Oc3c(-c4ccc(O)cc4)oc4cc(O)cc(O)c4c3=O)C(O)C(O)C2O)C(O)C(O)C1O` (stereo not shown) [Compound 28, Kaempferol-3-O-rutinoside], the “COX-2 inhibition (in words)” value in experiment [1] is on record as “no inhibitory effects”.
